# Experiments:
# PBMC = experiment: Viability assay (SRB), normal cell control; format: cell-based, Human; conditions: 72 hrs, 10 mM to 0.1 μM
# Protocol: The assay was performed at six tenfold serial dilutions of the B3 compounds: 10 mM (stock), 1 mM, 100 μM, 10 μM, 1 μM and 0.1 μM. The screen was performed on 93 cancer cell lines and PBMC as normal cell control. The B3 compound was incubated with the cells for 72 hours. The following cancer cell lines were screened:
# The Sulforhodamine B (SRB) assay was used as a screening method. Briefly, the method relies on the property of SRB, to bind stoichiometrically to proteins under mild acidic conditions and to be extracted under basic conditions. Thus, the amount of bound dye can be used as a proxy for cell mass, which can then be extrapolated to measure cell proliferation. The protocol can be divided into four main steps: preparation of treatment, incubation of cells with treatment of choice, cell fixation and SRB staining and absorbance measurement.
# [1] = tested on: MG-63 osteosarcoma cell line; experiment: Dose response of cell death with B3 relative to DMSO; format: cell-based; conditions: increasing doses of B3
# HeLa cells = experiment: Western blot of HeLa cells exposed to B3; format: cell-based; conditions: 30 μM, 2-24 hrs
# Protocol: The cells were lysed in WCE (whole-cell extract) buffer [25 mM Hepes, pH 7.7, 0.3M NaCl, 1.5 mM MgCl2, 0.2 mM EDTA, 0.1% Triton X-100, 100[μg/ml PMSF and protease inhibitor cocktail (Roche, 1:100 dilution)]. 100 μg of total cell protein, measured with the Bio-Rad Protein Assay kit, were separated by SDS-PAGE (12%) followed by transfer for 2 h on to a nitrocellulose membrane. The membrane was blocked with 5% (w/v) non-fat dried skimmed milk powder in PBS supplemented with 0.05% Tween20 (PBS-T) for 1 hour at room temperature (R.T). Membrane was then probed with primary antibody at 4° C. overnight. Next, the membrane was incubated with the appropriate HRP-conjugated secondary antibody, for 1 hour at R.T. and washed 15 min ×3 with PBS-T. WesternBright ECL (Advansta) was added to the membrane for 2 min and analyzed using ImageQuant LAS-4000 analyzer (GE Healthcare Life Sciences) & “ImageQuant LAS-4000” software (GE Healthcare Life Sciences). Densitometry analysis was performed using ImageQuant total lab 7 (GE Healthcare Life Sciences), image analysis software.
# Jurkat cell lines = experiment: PrestoBlue viability assay; format: cell-based; conditions: 20 μM B3 vs 12.5 μM Etoposide, 24 h
# XIAP = XIAP (Homo sapiens, UniProt P98170); experiment: Nano-DSF binding assay (Crelux); conditions: binding curve, dose response
# XIAP, sequence (P98170 whole entry): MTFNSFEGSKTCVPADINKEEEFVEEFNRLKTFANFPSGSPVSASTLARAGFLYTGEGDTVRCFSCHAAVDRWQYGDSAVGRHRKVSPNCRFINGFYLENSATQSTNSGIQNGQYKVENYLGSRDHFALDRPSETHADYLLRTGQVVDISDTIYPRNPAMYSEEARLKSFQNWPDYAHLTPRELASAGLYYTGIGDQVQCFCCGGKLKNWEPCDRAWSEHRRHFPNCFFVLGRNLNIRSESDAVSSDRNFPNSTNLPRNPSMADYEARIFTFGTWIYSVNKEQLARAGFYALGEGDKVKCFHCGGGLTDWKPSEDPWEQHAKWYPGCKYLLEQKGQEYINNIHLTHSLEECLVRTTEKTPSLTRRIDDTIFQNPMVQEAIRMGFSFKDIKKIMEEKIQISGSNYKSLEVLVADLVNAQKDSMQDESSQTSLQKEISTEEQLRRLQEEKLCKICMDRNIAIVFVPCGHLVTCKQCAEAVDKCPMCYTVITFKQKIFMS
# BCL-2 = BCL-2 (Homo sapiens, UniProt P10415); experiment: MST binding assay; conditions: binding curve, dose response
# BCL-2, sequence (P10415 whole entry): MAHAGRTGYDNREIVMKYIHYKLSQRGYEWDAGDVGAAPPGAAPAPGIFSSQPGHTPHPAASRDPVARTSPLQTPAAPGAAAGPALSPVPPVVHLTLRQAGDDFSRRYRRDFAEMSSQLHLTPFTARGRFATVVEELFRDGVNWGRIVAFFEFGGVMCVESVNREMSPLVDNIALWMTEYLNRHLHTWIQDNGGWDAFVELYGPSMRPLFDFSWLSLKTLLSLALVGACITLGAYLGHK
# Protocol: Microscale thermophoresis (MST) binding assays were performed by CreLux, a WuXi AppTech company in Germany, using recombinant ARTS, XIAP, Bcl-2 and cIAP1 proteins. Specifically, for performing experiments with untagged XIAP, a fluorescent label (NT650) was covalently attached to the protein (Maleimide coupling). The labelling was performed in a buffer containing 50 mM HEPES pH 7.0, 150 mM NaCl and 0.005% Tween-20.
# [2] = target: T1, complex formation between XIAP and Bcl-2 (Homo sapiens, UniProt P10415+P98170); experiment: Co-immunoprecipitation in HCT 116 XIAP KO cells transfected with GFP-XIAP and Flag-Bcl-2; format: cell-based; conditions: 20 uM B3
# T1 construct: expressed in transfected cells; host or cells: HCT 116 XIAP KO cells
# T1 sequence (P98170 whole entry): as the sequence (P98170 whole entry) above
# T1 sequence (P10415 whole entry): as the sequence (P10415 whole entry) above
# Protocol: Protein extracts were prepared with lysis buffer containing 150 mM NaCl, 50 mM Tris-HCl (pH 8), 1% NP-40, 0.5% deoxycholate acid with protease inhibitors (mini complete, Roche). Protein levels were determined and equal amounts were used for each sample. Lysates were pre-cleared with […] mouse IgG (Sigma) coupled with protein A/G sepharose mix (Amersham Biosciences). Complexes were incubated overnight at 4° C., followed by low-speed centrifugation. Supernatants were immunoprecipitated using […] of monoclonal anti-Bcl-2 antibodies (BD) overnight. Protein A/G sepharose beads were added to immunoprecipitate complex for 4 hours, collected and washed four times with PBS and then responded and heated in Sample buffer ×2 for 10 minutes.
# [3] = tested on: p53 Ubiquitylation in HCT 116 WT; experiment: In vivo ubiquitylation assay of p53; format: cell-based; conditions: 20 μM B3, 5 h, with proteasome inhibitor
# Protocol: (§1) All cells were transiently transfected with a Ub-HA (ubiquitin-tagged with HA) construct and treated with a proteasome inhibitor (Bortezomib or MG-132, at 20 μM for 6 h). after 1 h of proteasome inhibitor incubation, B3 (20 μM) or DMSO was added to the medium for an additional 5 h. After 6 h of Bortezomib/MG-132 along with 5 h of B3 treatments, the cells were harvested and lysed using RIPA buffer (Tris-HCl pH 7.5 50 mM, NaCl 150 mM, NP-40 (Igepal) 0.3%) containing protease inhibitor cocktail (Complete, Roche), 100 µg/ml PMSF, 5 mM N-ethylmaleimide, and 5 mM iodoacetamide to preserve ubiquitin chains. Following 15 min of centrifugation (10,000×g, 4° C.), the supernatant was transferred into a clean Eppendorf tube. A ubiquitination assay using immunoprecipitation with anti-p53 antibody (CS2524) (endogenous p53 was pulled down) was performed as described above with 1:500 antibody per 1000 μg protein. Poly-ubiquitylated forms of p53 were detected using an anti-p53 antibody (DO-1, sc-126).
# [4] = tested on: p53 Ubiquitylation in HCT 116 XIAP KO cells; experiment: In vivo ubiquitylation assay of p53; format: cell-based; conditions: 20 μM B3, XIAP KO cells
# Protocol: as §1
smiles,measurement,setting,value
"Cn1ccnc1C(=O)c1ccc(NC(=O)C(=O)N[C@H](CO)Cc2ccccc2)cc1 [B3, (S)-N1-(1-hydroxy-3-phenylpropan-2-yl)-N2-(4-(1-methyl-1H-imidazole-2-carbonyl)phenyl)oxalamide]",sensitivity of normal cell control to B3,PBMC,resistant
same,cell death,[1],dose-dependent death
same,anti-apoptotic markers,HeLa cells,reduction
same,cell death compared with Etoposide,Jurkat cell lines,as efficient as the strong pro-apoptotic chemotherapeutic agent Etoposide
same,direct binding to XIAP,XIAP,binds with high affinity
same,direct binding to Bcl-2,BCL-2,binds with high affinity
same,complex formation between XIAP and Bcl-2,[2],significantly increase
same,Ubiquitylation of p53,[3],inhibit
same,p53 Ubiquitylation levels,[4],no effect

# From patent US20250057813A1, “APOPTOSIS RELATED PROTEIN IN THE TGF-BETA SIGNALING PATHWAY (ARTS) MIMETIC COMPOUNDS, COMPOSITIONS, METHODS AND USES THEREOF IN INDUCTION OF APOPTOSIS” (Carmel-Haifa University Economic Corporation Ltd., priority 2022, published 2025)
